Where “and” joins values, the source holds several entries; their conditions need not be identical. Equal values may be shown once.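 All cell lines were grown in 96-well plates and treated with compound for 48 hours. Abbreviation: GI50, concentration required for 50% inhibition of growth.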 Calls of active or inactive are those of the source. No stated cut-off is given here; in the data, active = GI50 up to about 1.1 µM and inactive = higher.
How the values were obtained:
Assay in all cases: inhibition of tumour cell growth, NCI panel, 48 h
[1] = test system: HCT-15
[2] = test system: 786-0
[3] = test system: MDA-MB-231
[4] = test system: OVCAR-4
[5] = test system: SF-539
[6] = test system: NCI-H460
[7] = test system: SNB-19
[8] = test system: NCI/ADR-RES
[9] = test system: K562
[10] = test system: A498
[11] = test system: EKVX
[12] = test system: MCF7
[13] = test system: OVCAR-3
[14] = test system: LOX IMVI
[15] = test system: RXF 393
[16] = test system: CCRF-CEM
[17] = test system: HL-60
[18] = test system: SF-295
[19] = test system: HT-29
[20] = test system: MDA-MB-435

Measured: GI50

COC1OC(C(=O)CP(=O)(OC)OC)C(OCc2ccccc2)C(OCc2ccccc2)C1OCc1ccccc1 (centres undefined)
15.5 µM and 17.7 µM: [1]
inactive: [2] 17.6 µM and 17.3 µM | [3] 15.9 µM and 16.7 µM | [4] 14.7 µM and 20.7 µM | [5] 17.3 µM and 16.9 µM | [6] 15 µM and 15.9 µM | [7] 15.9 µM and 16.3 µM | [8] 18.9 µM and 16.4 µM | [9] 31 µM and 17.9 µM | [10] 14.1 µM | [11] 15 µM and 16.9 µM | [12] 16.4 µM | [13] 15.6 µM and 15.1 µM | [14] 17.7 µM and 17.2 µM | [15] 14.8 µM and 12.1 µM | [16] 33.1 µM and 25.1 µM | [17] 21.8 µM and 18.7 µM | [18] 16.5 µM and 14.5 µM | [19] 17.2 µM and 16 µM | [20] 18.7 µM and 17 µM

O=c1c(-c2c(-c3ccccc3)oc3ccc(Cl)cc3c2=O)c(-c2ccccc2)oc2ccc(Cl)cc12
inactive: [2] > 100 µM | [3] > 40.3 µM | [4] > 100 µM | [5] > 100 µM | [6] > 94.8 µM | [7] > 100 µM | [8] > 100 µM | [9] > 100 µM | [10] > 100 µM | [11] > 43.9 µM | [12] > 100 µM | [13] > 100 µM | [14] > 82.4 µM | [15] > 100 µM | [16] > 100 µM | [18] > 51.8 µM | [19] > 100 µM | [20] > 100 µM
> 100 µM: [1]
active: [17] 0.0302 µM

COC(=O)[C@]1(C)CC[C@]2(C)CC[C@]3(C)C4[C@H]5Oc6c(cc7c(c6C)CCC6[C@@]7(C)CC[C@@]7(C)C8[C@](C)(CCC[C@@]8(C)C(=O)OC)CC[C@]67C)O[C@H]5c5c(cc6c(c5C)O[C@@]5(C)C7=CC=C8[C@@](C)(CC[C@@]9(C)[C@@H]%10C[C@](C)(C(=O)OC)CC[C@]%10(C)CC[C@]89C)C7=CC(=O)[C@@]5(O)O6)[C@]4(C)CC[C@@]3(C)C2C1 (some centres undefined)
inactive: [2] 1.86 µM | [3] 3.11 µM | [4] 7.59 µM | [5] 2.63 µM | [6] 8.91 µM | [7] 5.05 µM | [8] > 12.5 µM | [9] 3.46 µM | [10] > 12.5 µM | [11] 3.42 µM | [12] 3.11 µM | [13] 2.64 µM | [14] 2.27 µM | [15] 1.91 µM | [16] 1.19 µM | [17] 5.32 µM | [18] > 12.5 µM | [19] 3.66 µM | [20] 3.56 µM
3.45 µM: [1]

CC[P+]1(c2ccccc2)[C@@H](C)CC[C@@H]1C
inactive: [2] > 100 µM | [3] > 100 µM | [4] > 100 µM | [5] > 100 µM | [6] > 100 µM | [7] > 100 µM | [8] > 100 µM | [9] 96.2 µM | [10] > 100 µM | [11] > 100 µM | [12] > 100 µM | [13] 84.1 µM | [14] > 100 µM | [15] > 100 µM | [16] > 100 µM | [17] > 100 µM | [18] > 100 µM | [19] > 100 µM | [20] > 100 µM
> 100 µM: [1]

O=C1CC(NC(=O)C(F)(F)F)c2c1csc2Br (centres undefined)
88.5 µM: [1]
inactive: [2] 26.5 µM | [3] > 100 µM | [4] 58.5 µM | [5] 74.1 µM | [6] 1.51 µM | [7] > 100 µM | [8] > 100 µM | [9] 48.3 µM | [10] 45.3 µM | [11] 14.8 µM | [12] 2.94 µM | [13] 2.45 µM | [14] 60.3 µM | [15] 2.87 µM | [16] 33.6 µM | [17] 53.1 µM | [18] 5.77 µM | [19] > 100 µM | [20] 56.5 µM

Cc1nnc([C@@]2(C)CC[C@H]3[C@@H](CCC4=CC(=O)CC[C@@]43C)[C@@H]2CC#N)o1
inactive: [2] > 100 µM | [3] > 100 µM | [4] > 100 µM | [5] > 100 µM | [7] > 100 µM | [8] > 100 µM | [9] > 100 µM | [10] > 100 µM | [11] > 100 µM | [12] > 100 µM | [13] > 100 µM | [14] > 100 µM | [15] > 100 µM | [16] > 100 µM | [17] > 100 µM | [18] > 100 µM | [19] > 100 µM | [20] > 100 µM
> 100 µM: [1]

O=C1CCCC/C1=C(\Br)I
3.4 µM: [1]
inactive: [2] 19.6 µM | [3] 17.6 µM | [4] 15.4 µM | [5] 18.8 µM | [6] 15.3 µM | [7] 20.7 µM | [8] 19 µM | [9] 2.69 µM | [10] 19.4 µM | [11] 18.7 µM | [12] 12.8 µM | [13] 18 µM | [14] 16.7 µM | [15] 15.6 µM | [16] 1.77 µM | [17] 2.12 µM | [18] 17.5 µM | [19] 12.9 µM | [20] 15.1 µM

O=C1C(N2CCN(c3ccccn3)CC2)=C(Cl)C(=O)c2ncccc21
inactive: [2] 1.78 µM | [3] 3.63 µM | [5] > 10 µM | [6] > 10 µM | [7] > 10 µM | [8] 5.22 µM | [9] 1.51 µM | [10] 5.07 µM | [11] > 10 µM | [12] 1.76 µM | [13] 1.89 µM | [14] 2.22 µM | [15] 1.98 µM | [16] 1.32 µM | [18] > 10 µM | [19] 2.88 µM | [20] > 3.74 µM
active: [4] 0.637 µM | [17] 0.105 µM
1.95 µM: [1]

COc1cc2c(c3oc4c(O)cccc4c(=O)c13)CC(C(C)(O)CCl)O2 (centres undefined)
1.04 µM: [1]
inactive: [3] 1.55 µM | [4] 1.45 µM | [6] 2.64 µM | [7] 4.85 µM | [10] 15.1 µM | [11] 5.52 µM | [13] 1.21 µM | [18] 1.92 µM
active: [2] 0.889 µM | [5] 0.443 µM | [8] 0.679 µM | [9] 0.0242 µM | [12] 0.0254 µM | [14] < 0.01 µM | [15] 0.834 µM | [16] 0.0277 µM | [17] 0.115 µM | [19] 0.0476 µM | [20] 0.13 µM

COC(=O)C(Cc1ccc2c(c1)CCC2)Cc1ccc2c(c1)CCC2
89.7 µM: [1]
inactive: [2] 78.2 µM | [3] > 100 µM | [4] > 100 µM | [5] > 100 µM | [6] 53.2 µM | [7] > 100 µM | [8] > 100 µM | [9] 43.1 µM | [10] 38.1 µM | [11] 44.8 µM | [12] 31.5 µM | [13] 85.1 µM | [14] 20.8 µM | [15] 31 µM | [16] 32.4 µM | [17] 23 µM | [18] 36.6 µM | [19] 29.4 µM | [20] 48.8 µM

Cc1cc2c(cc1Cl)SC(N/N=C(\N)c1ccc(Cl)cc1)=NS2(=O)=O
46.5 µM: [1]
inactive: [2] 90.8 µM | [3] 76.6 µM | [4] 75.2 µM | [5] 32.3 µM | [6] 52.7 µM | [7] 77.4 µM | [8] > 100 µM | [9] 44 µM | [10] 32.9 µM | [11] 72.9 µM | [12] 14.1 µM | [13] 34.7 µM | [14] 43 µM | [15] 90.2 µM | [16] 43.3 µM | [17] 40.5 µM | [18] 71.3 µM | [19] 52.8 µM | [20] 61.8 µM

CC(C)=CC1CC(C)C2(CCC3(C)CC4C(C(=O)CC4(C)O)/C(C=O)=C\CC32)O1 (centres undefined)
0.0243 µM: [1]
active: [2] 0.021 µM | [3] 0.0968 µM | [4] 0.0356 µM | [5] 0.0933 µM | [6] 0.133 µM | [7] 0.177 µM | [8] 0.11 µM | [9] 0.0614 µM | [10] 0.278 µM | [11] 0.154 µM | [12] 0.0675 µM | [13] 0.0224 µM | [14] 0.0582 µM | [15] 0.0373 µM | [16] 0.0179 µM | [17] < 0.0173 µM | [18] 0.191 µM | [19] 0.0312 µM | [20] 0.0617 µM

CO[C@@H]1C[C@H](OC(N)=O)[C@@H]2C=C[C@@H]3/C=C(C)/C=C/[C@@H](C)[C@H]([C@H](C)[C@H](O)[C@@H](C)NC(C)=O)OC(=O)/C=C/C=C(C)\C=C\[C@]3(C)[C@@H]2C1
< 0.01 µM: [1]
active: [2] < 0.01 µM | [3] < 0.0316 µM | [4] < 0.01 µM | [5] < 0.01 µM | [6] < 0.01 µM | [8] < 0.01 µM | [9] 0.0101 µM | [10] < 0.01 µM | [12] < 0.01 µM | [13] < 0.0436 µM | [14] < 0.01 µM | [15] < 0.01 µM | [16] 0.322 µM | [17] < 0.01 µM | [18] < 0.01 µM | [19] < 0.01 µM | [20] < 0.01 µM
inactive: [7] 1.5 µM | [11] 1.24 µM
